Reference: patent US20220273683A1, “BORON-CONTAINING SMALL MOLECULES” (Bill & Melinda Gates Foundation, priority 2016, published 2022)
≈ marks a conversion by molar mass, not a printed value.

What was measured:
Type in all cases: cell-based
[1] = tested on: Staphylococcus aureus, MRSA (ATCC 33591); experiment: Antibacterial MIC assay (microbroth dilution, CLSI); settings: 35° C., 16-20 hours
Source text: (§1) All MIC testing of bacteria followed the Clinical and Laboratory Standards Institute (CLSI) guidelines for antimicrobial testing of aerobic bacteria (Methods for Dilution Antimicrobial Susceptibility Tests for Bacteria that Grow Aerobically; Approved Standard—Tenth Edition, M07-A10; Performance Standards for Antimicrobial Susceptibility Testing; Twenty-fifth Informational Supplement, M100-S25).
(§2) Briefly, the microbroth dilution MIC method was used to quantitatively measure the in vitro antibacterial activity of a compound against a given bacterial isolate. The following bacterial strains were evaluated: Staphylococcus aureus, MRSA (ATCC 33591) and Streptococcus pneumoniae (ATCC 49619). Bacteria were grown in cation-adjusted Mueller-Hinton broth, with additions as required per species growth requirements (e.g. 3% lysed horse blood for fastidious organisms such as S. pneumoniae). A direct colony suspension in saline was prepared from colonies on an overnight agar plate to achieve a turbidity equivalent to 0.5 McFarland standard, which was subsequently diluted into the assay plate to achieve 5×10^5 CFU/mL. Assays plates were prepared by 2-fold dilution of compound across the plate and included a positive growth control.

[2] = tested on: Streptococcus pneumoniae (ATCC 49619); experiment: as above; settings: 35° C., 16-20 hours; for MIC Streptococcus pneumoniae (ATCC 49619): 3% lysed horse blood
Source text: as §1, §2

[3] = tested on: Wolbachia pipientis in C6/36 cell line; experiment: Anti-Wolbachia high-content assay; settings: C6/36 (wAlbB) cells, 7 days at 26° C., 50% reduction of Wolbachia
Source text: C6/36 cells (ECACC #89051705, derived from Aedes albopictus larvae) were infected with Wolbachia pipientis derived from the supernatant of cultured A. albopictus Aa23 cells to create a stably Wolbachia-infected cell line C6/36 (wAlbB). This cell line was subpassaged 6-8 days prior to plating out at a density of 2000 viable cells per well in a 384-well CellCarrier plate suspended in Liebovitz media supplemented with 20% fetal bovine serum, 2% tryptose phosphate broth and 1% non-essential amino acids. Compounds were dissolved and diluted in DMSO, and compound solution was added to each well to provide a final DMSO concentration <1% and a total volume of 100 μL per well. Following 7 days of sterile incubation at 26° C., staining media containing SYTO 11 DNA dye was added to each well. After 15 minutes, all media was removed from each well and fresh media (no stain) was added. Imaging of each well was accomplished using a Perkin Elmer Operetta high-content imaging system. Five fields per well were imaged using a confocal 60× objective with the Fluorescein filter (excitation filter: 460-490 nm; emission filter: 500-550 nm). Images were analyzed using the Perkin Elmer Harmony software to score each intact cell on the basis of texture complexity of the cytoplasm. Full details can be found in: […]. Biomol. Screening, 2015, 20, […]. Compound sample wells were analyzed and normalized (along with the positive controls) against the vehicle (untreated) control to give a percentage reduction of Wolbachia-infected cells. Using the cell number analysis, compounds with a host cell number amounting to less than 50% of the vehicle control were classified as toxic and retested at a reduced compound concentration. Dose-response curves were generated with percentage reduction of Wolbachia-infected cells versus compound concentration, using 5-10 compound serial dilutions. Data were analyzed and compound EC50 is determined using a 4 parameter logistic nonlinear regression model.

Compound | MIC Staphylococcus aureus, MRSA (ATCC 33591) [1] | MIC Streptococcus pneumoniae (ATCC 49619) [2] | EC50 [3] [µM] | MIC ([1]; Staphylococcus aureus) [mg/L] | MIC ([2]; Streptococcus pneumoniae, ATCC49619, 3% lysed horse blood) [mg/L]
C[C@@H]1CC[C@@]23CCC(=O)[C@H]2[C@]1(C)[C@H](OC(=O)COc1ccc2c(c1F)B(O)OC2)C[C@@]1(C)CCC(=O)O[C@H]1[C@@H]3C [Compound 1, (4aR,6R,7R,7aR,10aS,11R,11aS,14R)-4a,7,11,14-tetramethyl-2,8-dioxododecahydro-2H-7,10a-propanocyclopenta[6,7]cycloocta[1,2-b]pyran-6-yl2-((7-fluoro-1-hydroxy-1,3-dihydrobenzo[c][1,2]oxaborol-6-yl)oxy)acetate] | B (0.5-2 is B) | C (4-32 is C) | > 1 | – | –
C[C@@H]1CC[C@@]23CCC(=O)[C@H]2[C@]1(C)[C@H](OC(=O)COc1ccc2c(c1F)B(O)OC2)C[C@@](C)(CCC(N)=O)[C@@H](O)[C@@H]3C [Compound 2, (3aR,4R,5R,7R,8S,9R,9aS,12R)-7-(3-amino-3-oxopropyl)-8-hydroxy-4,7,9,12-tetramethyl-3-oxodecahydro-4,9a-propanocyclopenta[8]annulen-5-yl2-((7-fluoro-1-hydroxy-1,3-dihydrobenzo[c][1,2]oxaborol-6-yl)oxy)acetate] | C (4-32 is C) | C (4-32 is C) | > 1 | – | –
C[C@@H]1CC[C@@]23CCC(=O)[C@H]2[C@]1(C)[C@H](OC(=O)COc1ccc2c(c1F)B(O)OC2)C[C@@](C)(CCN1CCOCC1)[C@@H](O)[C@@H]3C [Compound 41, (3aR,4R,5R,7R,8S,9R,9aS,12R)-8-hydroxy-4,7,9,12-tetramethyl-7-(2-morpholinoethyl)-3-oxodecahydro-4,9a-propanocyclopenta[8]annulen-5-yl 2-((7-fluoro-1-hydroxy-1,3-dihydrobenzo[c][1,2]oxaborol-6-yl)oxy)acetate] | – | – | – | 4 to 32 (≈ 6.5 to 52 µM) | 4 to 32 (≈ 6.5 to 52 µM)
CCN(CC)CC[C@]1(C)C[C@@H](OC(=O)COc2ccc3c(c2F)B(O)OC3)[C@]2(C)[C@H](C)CC[C@]3(CCC(=O)[C@H]32)[C@@H](C)[C@@H]1O [Compound 42, (3aR,4R,5R,7R,8S,9R,9aS,12R)-7-(2-(diethylamino)ethyl)-8-hydroxy-4,7,9,12-tetramethyl-3-oxodecahydro-4,9a-propanocyclopenta[8]annulen-5-yl2-((7-fluoro-1-hydroxy-1,3-dihydrobenzo[c][1,2]oxaborol-6-yl)oxy)acetate] | C (4-32 is C) | D (≥64 is D) | – | – | –
C[C@@H]1CC[C@@]23CCC(=O)[C@H]2[C@]1(C)[C@H](OC(=O)COc1ccc2c(c1F)B(O)OC2)C[C@@](C)(C=NO)[C@@H](O)[C@@H]3C [Compound 43, (3aR,4R,5R,7S,8S,9R,9aS,12R)-8-hydroxy-7-((hydroxyimino)methyl)-4,7,9,12-tetramethyl-3-oxodecahydro-4,9a-propanocyclopenta[8]annulen-5-yl2-((7-fluoro-1-hydroxy-1,3-dihydrobenzo[c][1,2]oxaborol-6-yl)oxy)acetate] | A (MIC of ≤0.25 is A) | C (4-32 is C) | – | – | –
CON=C[C@]1(C)C[C@@H](OC(=O)COc2ccc3c(c2F)B(O)OC3)[C@]2(C)[C@H](C)CC[C@]3(CCC(=O)[C@H]32)[C@@H](C)[C@@H]1O [Compound 44, (3aR,4R,5R,7S,8S,9R,9aS,12R)-8-hydroxy-7-((methoxyimino)methyl)-4,7,9,12-tetramethyl-3-oxodecahydro-4,9a-propanocyclopenta[8]annulen-5-yl2-((7-fluoro-1-hydroxy-1,3-dihydrobenzo[c][1,2]oxaborol-6-yl)oxy)acetate] | A (MIC of ≤0.25 is A) | C (4-32 is C) | – | – | –
CONC[C@]1(C)C[C@@H](OC(=O)COc2ccc3c(c2F)B(O)OC3)[C@]2(C)[C@H](C)CC[C@]3(CCC(=O)[C@H]32)[C@@H](C)[C@@H]1O [Compound 45, (3aR,4R,5R,7S,8S,9R,9aS,12R)-8-hydroxy-7-((methoxyamino)methyl)-4,7,9,12-tetramethyl-3-oxodecahydro-4,9a-propanocyclopenta[8]annulen-5-yl2-((7-fluoro-1-hydroxy-1,3-dihydrobenzo[c][1,2]oxaborol-6-yl)oxy)acetate] | B (0.5-2 is B) | C (4-32 is C) | – | – | –
CC(C)ON=C[C@]1(C)C[C@@H](OC(=O)COc2ccc3c(c2F)B(O)OC3)[C@]2(C)[C@H](C)CC[C@]3(CCC(=O)[C@H]32)[C@@H](C)[C@@H]1O [Compound 46, (3aR,4R,5R,7S,8S,9R,9aS,12R)-8-hydroxy-7-((isopropoxyimino)methyl)-4,7,9,12-tetramethyl-3-oxodecahydro-4,9a-propanocyclopenta[8]annulen-5-yl2-((7-fluoro-1-hydroxy-1,3-dihydrobenzo[c][1,2]oxaborol-6-yl)oxy)acetate] | B (0.5-2 is B) | C (4-32 is C) | – | – | –
C[C@@H]1CC[C@@]23CCC(=O)[C@H]2[C@]1(C)[C@H](OC(=O)COc1ccc2c(c1F)B(O)OC2)C[C@@](C)(CN)[C@@H](O)[C@@H]3C [Compound 47, (3aR,4R,5R,7S,8S,9R,9aS,12R)-7-(aminomethyl)-8-hydroxy-4,7,9,12-tetramethyl-3-oxodecahydro-4,9a-propanocyclopenta[8]annulen-5-yl2-((7-fluoro-1-hydroxy-1,3-dihydrobenzo[c][1,2]oxaborol-6-yl)oxy)acetate] | B (0.5-2 is B) | C (4-32 is C) | – | – | –
CC(=O)NC[C@]1(C)C[C@@H](OC(=O)COc2ccc3c(c2F)B(O)OC3)[C@]2(C)[C@H](C)CC[C@]3(CCC(=O)[C@H]32)[C@@H](C)[C@@H]1O [Compound 48, (3aR,4R,5R,7S,8S,9R,9aS,12R)-7-(acetamidomethyl)-8-hydroxy-4,7,9,12-tetramethyl-3-oxodecahydro-4,9a-propanocyclopenta[8]annulen-5-yl2-((7-fluoro-1-hydroxy-1,3-dihydrobenzo[c][1,2]oxaborol-6-yl)oxy)acetate] | B (0.5-2 is B) | C (4-32 is C) | – | – | –
C[C@@H]1CC[C@@]23CCC(=O)[C@H]2[C@]1(C)[C@H](OC(=O)COc1ccc2c(c1F)B(O)OC2)C[C@@](C)(CN)[C@@H](OS(C)(=O)=O)[C@@H]3C [Compound 50, (3aR,4R,5R,7S,8S,9R,9aS,12R)-7-(aminomethyl)-4,7,9,12-tetramethyl-8-((methylsulfonyl)oxy)-3-oxodecahydro-4,9a-propanocyclopenta[8]annulen-5-yl2-((7-fluoro-1-hydroxy-1,3-dihydrobenzo[c][1,2]oxaborol-6-yl)oxy)acetate] | C (4-32 is C) | C (4-32 is C) | – | – | –
Cc1nnc(/C=C/[C@]2(C)C[C@@H](OC(=O)COc3ccc4c(c3F)B(O)OC4)[C@]3(C)[C@H](C)CC[C@]4(CCC(=O)[C@H]43)[C@@H](C)[C@@H]2O)o1 [Compound 51, (3aR,4R,5R,7S,8S,9R,9aS,12R)-8-hydroxy-4,7,9,12-tetramethyl-7-((E)-2-(5-methyl-1,3,4-oxadiazol-2-yl)vinyl)-3-oxodecahydro-4,9a-propanocyclopenta[8]annulen-5-yl2-((7-fluoro-1-hydroxy-1,3-dihydrobenzo[c][1,2]oxaborol-6-yl)oxy)acetate] | B (0.5-2 is B) | B (0.5-2 is B) | – | – | –
Cc1noc(/C=C/[C@]2(C)C[C@@H](OC(=O)COc3ccc4c(c3F)B(O)OC4)[C@]3(C)[C@H](C)CC[C@]4(CCC(=O)[C@H]43)[C@@H](C)[C@@H]2O)n1 [Compound 52, (3aR,4R,5R,7S,8S,9R,9aS,12R)-8-hydroxy-4,7,9,12-tetramethyl-7-((E)-2-(3-methyl-1,2,4-oxadiazol-5-yl)vinyl)-3-oxodecahydro-4,9a-propanocyclopenta[8]annulen-5-yl2-((7-fluoro-1-hydroxy-1,3-dihydrobenzo[c][1,2]oxaborol-6-yl)oxy)acetate] | A (MIC of ≤0.25 is A) | A (MIC of ≤0.25 is A) | – | – | –
